The results in this text go back to patent US9023789B2, “Amylin analogs and pharmaceutical compositions thereof” (Novo Nordisk A/S, priority 2012, dated 2015).

The EC50 is the concentration giving half of the maximal effect. The IC50 is the concentration at which inhibition is half-maximal.

The target of series [1] is T1, human amylin 3(a) receptor (human calcitonin receptor + RAMP-3) in BHK570 cells (Homo sapiens, UniProt O60896+P30988).
T1 construct: expressed in transfected cells
Description: ASSAY (II)a functional assay, human amylin receptor (CRE luciferase). The class given is cell-based. The conditions noted are these: for EC50: human amylin receptor functional potency, assay (II), read-out: hAmylin-R funct. EC50. In short, it runs like this:
(§1)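 Read-out: CRE-driven luciferase luminescence, single photon counting, after 30 min at room temperature with LucLite. BHK cells expressed calcitonin receptor alone or with RAMP-3 (amylin 3(a)). Cells were stimulated 3 h at 37° C in DMEM, 10% FBS, 10 mM Hepes, pH 7.4.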

The target in series [2] is T2, human calcitonin (a) receptor in BHK570 cells (Homo sapiens, UniProt P30988).
T2 construct: expressed in transfected cells
T2 sequence (P30988 25-474): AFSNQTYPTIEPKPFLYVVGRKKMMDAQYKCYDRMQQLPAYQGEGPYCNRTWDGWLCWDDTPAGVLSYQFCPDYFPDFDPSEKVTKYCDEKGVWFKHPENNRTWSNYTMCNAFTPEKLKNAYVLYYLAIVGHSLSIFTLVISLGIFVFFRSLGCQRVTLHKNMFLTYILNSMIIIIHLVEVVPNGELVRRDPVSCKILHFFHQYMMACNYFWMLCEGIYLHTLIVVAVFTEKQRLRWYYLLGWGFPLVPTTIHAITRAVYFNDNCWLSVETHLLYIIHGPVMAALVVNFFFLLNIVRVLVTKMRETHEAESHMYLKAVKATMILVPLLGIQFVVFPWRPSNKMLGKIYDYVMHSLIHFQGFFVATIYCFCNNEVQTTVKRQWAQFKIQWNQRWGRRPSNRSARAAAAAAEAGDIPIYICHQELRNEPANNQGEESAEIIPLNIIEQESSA
The series is described as follows: ASSAY (II)a functional assay, human calcitonin receptor (CRE luciferase). The format is cell-based. Particulars: read-out: hCTR funct. EC50. In short, it runs like this:
as §1

Series [3] can be described thus: ASSAY (IV) determination of solubility. The format is physicochemical. In short, it runs like this:
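UPLC read-out of polypeptide concentration after centrifugation. Samples: aqueous polypeptide stock ([…]) + 100 mM buffer 1:1, glycylglycine pH 3.0–5.0 or bistrispropane pH 6.0–8.0; 18 h, RT.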

The target in series [4] is T3, human amylin receptor (membranes from Amylin 3(a)/CRE-luc cells) (Homo sapiens, UniProt O60896+P30988).
T3 construct: expressed in transfected cells
T3 sequence (P30988 25-474): T2 sequence (P30988 25-474)
T3 sequence (O60896 24-148 partner): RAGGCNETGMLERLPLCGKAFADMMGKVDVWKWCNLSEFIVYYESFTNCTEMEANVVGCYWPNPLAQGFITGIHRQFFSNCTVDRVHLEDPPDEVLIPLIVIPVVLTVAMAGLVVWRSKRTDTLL
Description: ASSAY (V) binding to the human amylin receptor (SPA, 125I-rat amylin).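 As to all read-outs here: competition binding of cell membranes (35 ng/µL) mixed with SPA beads in 384-well plates at 40 µL total volume, read by scintillation counting.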 Particulars: for IC50: Table 4, read-out: hAmylin-R bind IC50.

Series [5] concerns the target T4, human calcitonin receptor (Homo sapiens, UniProt P30988).
T4 construct: expressed in transfected cells
T4 sequence (P30988 25-474): T2 sequence (P30988 25-474)
Description: ASSAY (VII) binding to the human calcitonin receptor (SPA, 125I-Calcitonin).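 Also: cell membranes (35 ng/µL) combined with SPA beads in 40 µL of pH 7.4 Hepes buffer, 384-well format, signal counted on a TopCounter instrument.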 The conditions noted are these: read-out: hCTR bind IC50.

The target of series [6] is T5, rat calcitonin receptor (Rattus norvegicus, UniProt P32214).
T5 construct: expressed in transfected cells; host or cells: BHK tk'ts 13 (transient, FuGENE 6), membranes
T5 sequence (P32214 25-479 isoform P32214-2 limits assumed): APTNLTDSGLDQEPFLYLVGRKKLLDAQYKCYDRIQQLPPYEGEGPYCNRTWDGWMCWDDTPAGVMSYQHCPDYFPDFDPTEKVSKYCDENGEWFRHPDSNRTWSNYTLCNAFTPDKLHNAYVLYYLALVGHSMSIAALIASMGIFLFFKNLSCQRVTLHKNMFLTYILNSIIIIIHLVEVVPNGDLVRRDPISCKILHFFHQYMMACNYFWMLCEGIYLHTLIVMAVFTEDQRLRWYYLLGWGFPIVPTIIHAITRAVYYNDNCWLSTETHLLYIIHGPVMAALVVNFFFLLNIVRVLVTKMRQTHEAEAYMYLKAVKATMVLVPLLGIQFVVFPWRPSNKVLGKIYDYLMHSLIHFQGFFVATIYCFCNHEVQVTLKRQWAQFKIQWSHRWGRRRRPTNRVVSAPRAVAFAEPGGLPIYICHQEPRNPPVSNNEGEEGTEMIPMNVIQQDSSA
Description: ASSAY (VIII) binding to the rat calcitonin receptor. Particulars: Table 7, read-out: rCTR bind IC50. In short, it runs like this: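 Receptor source: membranes from transiently transfected BHK tk′ts 13 cells expressing rat calcitonin receptor, collected roughly 48 hours after transfection.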

Setting [7] is: hCTR funct. EC50 divided by hAmylin-R funct. EC50.
[8] abbreviates: hCTR funct. EC50 over hAmylin-R funct. EC50.
Where [9] appears, read: human functional selectivity: hCTR funct. EC50 / hAmylin-R funct. EC50.
[10] abbreviates: bistrispropane buffer, pH 6.5, read-out: Solubility pH 6.5 Concentration.
Setting [11] is: bistrispropane buffer, pH 7.5, read-out: Solubility pH 7.5 Concentration.
Where [12] appears, read: bistrispropane buffer, pH 6.0, read-out: Solubility pH 6.0 Concentration.
[13] abbreviates: bistrispropane buffer, pH 7.0, read-out: Solubility pH 7.0 Concentration.
Setting [14] is: bistrispropane buffer, pH 8.0, read-out: Solubility pH 8.0 Concentration.
[15] abbreviates: glycylglycine buffer, pH 3.0, read-out: Solubility pH 3.0 Concentration.
The mark [16] stands for this setting: glycylglycine buffer, pH 4.0, read-out: Solubility pH 4.0 Concentration.
[17] abbreviates: glycylglycine buffer, pH 5.0, read-out: Solubility pH 5.0 Concentration.
[18] abbreviates: Table 5, selectivity, hCTR bind IC50 / hAmylin-R bind IC50.
Where [19] appears, read: Table 5a, selectivity, hCTR bind IC50 / hAmylin-R bind IC50.
Setting [20] is: Table 5b, selectivity, hCTR bind IC50 / hAmylin-R bind IC50.
Setting [21] is: Table 5c, selectivity, hCTR bind IC50 / hAmylin-R bind IC50.
[22] abbreviates: Table 7, human binding selectivity, included for comparison.
[23] abbreviates: Table 7a (preferred compounds), human binding selectivity, included for comparison.
Where [24] appears, read: ratio of human calcitonin receptor binding IC50 to human amylin receptor binding IC50.

In brackets after ≈: the same amount, converted by molar mass. Like-named read-outs stand apart in the source and are kept apart here. Numbered stars: 1 amine (or outer) side, 2 acyl side, 3 side chain; on linkers, the order of the positions; unused ones are H or OH. Bridge positions count the residues as written; N and C are the ends. Side chains are listed from the residue outwards. Peptide text beside a SMILES is read from it. * marks the point of attachment. C20 diacid = O=C(O)CCCCCCCCCCCCCCCCCCC(=O)*; γGlu = O=C(O)[C@H](CCC(=O)[*:2])N[*:1]

For the compound `CC[C@H](C)[C@H](NC(=O)[C@H](C)NC(=O)CNC(=O)[C@H](Cc1ccccc1)NC(=O)[C@H](CC(N)=O)NC(=O)[C@@H]1CCCN1C(=O)[C@H](CO)NC(=O)[C@H](CO)NC(=O)[C@H](Cc1c[nH]cn1)NC(=O)[C@H](CCCNC(=N)N)NC(=O)[C@H](CC(C)C)NC(=O)[C@H](Cc1ccccc1)NC(=O)[C@H](Cc1c[nH]cn1)NC(=O)[C@H](C)NC(=O)[C@H](CC(C)C)NC(=O)[C@H](CCCNC(=N)N)NC(=O)[C@H](CCC(N)=O)NC(=O)[C@@H](NC(=O)[C@H](C)NC(=O)[C@@H]1CSSC[C@H](NC(=O)[C@@H](N)CCCCNC(=O)CC[C@H](NC(=O)CCCCCCCCCCCCCCCCCCC(=O)O)C(=O)O)C(=O)N[C@@H](CC(N)=O)C(=O)N[C@@H]([C@@H](C)O)C(=O)N[C@@H](C)C(=O)N[C@@H]([C@@H](C)O)C(=O)N1)[C@@H](C)O)C(=O)N1CCC[C@H]1C(=O)N[C@@H](CO)C(=O)N[C@@H](CO)C(=O)N[C@H](C(=O)N[C@@H](CC(N)=O)C(=O)N[C@H](C(=O)NCC(=O)N[C@@H](CO)C(=O)N[C@@H](Cc1c[nH]cn1)C(=O)N[C@H](C(=O)N[C@@H](Cc1ccc(O)cc1)C(N)=O)[C@@H](C)O)C(C)C)[C@@H](C)O` [Example 66] (H-K([γGlu-C20 diacid])CNTATCATQRLAHFLRHSSPNFGAIPSSTNVGSHTY-NH2; disulfide 2-7; N-terminus assumed), the “Ratio hCT/hAmylin funct.” value in series [1] (setting [7]), in series [1] (setting [8]) and in series [1] (setting [9]) was 20.1 in each case. In addition, the EC50 in series [1] is 27 pM; in series [2], 542 pM. Also, the solubility at 18 h in series [3] (setting [10]) is ≥ 200 µM; in series [3] (setting [11]) it was 131 µM (≈ 580 µg/mL); in series [3] (setting [12]), ≥ 200 µM; in series [3] (setting [13]), ≥ 200 µM; in series [3] (setting [14]), 52 µM (≈ 230 µg/mL); in series [3] (setting [15]), ≥ 200 µM. For the same compound, the solubility at 18 h in series [3] (setting [16]) and in series [3] (setting [17]) was ≥ 200 µM throughout. The “Solubility pH 6.5 Concentration” value in series [3] (pH 6.5 (Table 9a)) is “≧200 μM”. The “Solubility pH 7.0 Concentration” value in series [3] (pH 7.0 (Table 9a)) is “≧200 μM”. For the same compound, the IC50 in series [4] came out at 396 pM; in series [5] it was 18000 pM; in series [6], 20800 pM. Further, the “Ratio hCT/hAmylin binding” value in series [4] (setting [18]), in series [4] (setting [19]), in series [4] (setting [20]), in series [4] (setting [21]), in series [4] (setting [22]) and in series [4] (setting [23]) was 45.5 in each case. Moreover, the “Ratio hCT/hAmylin binding” value in series [4] (setting [24]) came to 45.5.

For the compound `CC[C@H](C)[C@H](NC(=O)[C@H](C)NC(=O)CNC(=O)[C@H](Cc1ccccc1)NC(=O)[C@H](CC(N)=O)NC(=O)[C@@H]1CCCN1C(=O)[C@H](CO)NC(=O)[C@H](CO)NC(=O)[C@H](Cc1c[nH]cn1)NC(=O)[C@H](CCCNC(=N)N)NC(=O)[C@H](CC(C)C)NC(=O)[C@H](Cc1ccccc1)NC(=O)[C@H](CC(N)=O)NC(=O)[C@H](C)NC(=O)[C@H](CC(C)C)NC(=O)[C@H](CCCNC(=N)N)NC(=O)[C@H](CCC(N)=O)NC(=O)[C@@H](NC(=O)[C@H](C)NC(=O)[C@@H]1CSSC[C@H](NC(=O)[C@@H](N)CCCCNC(=O)COCCOCCNC(=O)CC[C@H](NC(=O)CCCCCCCCCCCCCCCCCCC(=O)O)C(=O)O)C(=O)N[C@@H](CC(N)=O)C(=O)N[C@@H]([C@@H](C)O)C(=O)N[C@@H](C)C(=O)N[C@@H]([C@@H](C)O)C(=O)N1)[C@@H](C)O)C(=O)N1CCC[C@H]1C(=O)N[C@@H](CO)C(=O)N[C@@H](CO)C(=O)N[C@H](C(=O)N[C@@H](CC(N)=O)C(=O)N[C@H](C(=O)NCC(=O)N1CCC[C@H]1C(=O)N[C@@H](CC(N)=O)C(=O)N[C@H](C(=O)N[C@@H](Cc1ccc(O)cc1)C(N)=O)[C@@H](C)O)C(C)C)[C@@H](C)O` [Example 50], the “Ratio hCT/hAmylin funct.” value in series [1] (setting [7]), in series [1] (setting [8]) and in series [1] (setting [9]) was 17.4 throughout. The figures for the EC50 in series [1] and in series [2] were 38 pM and 662 pM, respectively. Further, the solubility at 18 h in series [3] (setting [10]), in series [3] (setting [11]), in series [3] (setting [12]), in series [3] (setting [13]), in series [3] (setting [14]) and in series [3] (setting [15]) was ≥ 200 µM throughout. Also, the solubility at 18 h in series [3] (setting [16]) and in series [3] (setting [17]) was ≥ 200 µM each time. In addition, the IC50 in series [4] was 38 pM; in series [5], 1380 pM; in series [6], 5630 pM. Moreover, the “Ratio hCT/hAmylin binding” value in series [4] (setting [18]), in series [4] (setting [19]), in series [4] (setting [20]), in series [4] (setting [21]), in series [4] (setting [22]) and in series [4] (setting [23]) was 36.0 each time. The “Ratio hCT/hAmylin binding” value in series [4] (setting [24]) was 36.0.
